Among the data in article PMC11117309 are peptide remaining after proteinase K exposure values, retold here.

The structures appear in SMILES notation. Non-standard residues stand in square brackets, D forms with d. Residues, ends and D or L forms follow the SMILES beside them.

For the compound `CC[C@@H](C)[C@@H](NC(=O)[C@@H](C)NC(=O)[C@@H](CCC(=O)O)NC(=O)[C@H](NC(=O)[C@@H](CC(C)C)NC(=O)[C@@H](CCC(=O)O)NC(=O)CNC(=O)[C@@H](C)NC(=O)[C@@H](C)NC(=O)[C@@H](CC(C)C)NC(=O)[C@H](NC(=O)[C@@H](Cc1ccccc1)NC(=O)[C@@H](CC(C)C)NC(=O)[C@@H](CCC(=O)O)NC(=O)[C@@H](CC(C)C)NC(=O)[C@@H](Cc1ccccc1)NC(=O)[C@@H](C)NC(=O)[C@@H](CCCCN)NC(=O)CNC(=O)[C@H](N)CCCNC(=N)N)[C@H](C)CC)[C@H](C)CC)C(=O)N[C@H](CC(=O)O)C(=O)N[C@H](CCCNC(=N)N)C(=O)N[C@@H](C(=O)N[C@H](Cc1ccccc1)C(=O)N[C@@H](C(=O)NCC(=O)N[C@H](CCC(=O)O)C(=O)N[C@H](C)C(=O)N[C@H](Cc1c[nH]cn1)C(=O)O)[C@H](C)O)[C@H](C)O` (H-[dR]G[dK][dA][dF][dL][dE][dL][dF][dI][dL][dA][dA]G[dE][dL][dI][dE][dA][dI][dD][dR][dT][dF][dT]G[dE][dA][dH]-OH), the peptide remaining after proteinase K exposure is above 88%.
